Results from patent US20260308149A1, “NOVEL CARBOXAMIDE DERIVATIVES” (ANGELINI PHARMA S.P.A., priority 2023, published 2026).

Assays:
[1] = molecular target: T1, human Kv7.2 (Homo sapiens, UniProt O43526); test: activation (potentiation) of Kv7.2 current, SyncroPatch 384 electrophysiology in CHO cells stably expressing human Kv7.2; assay type: cell-based; details: human Kv7.2 in CHO cells; in presence of 5.6 μM zinc pyrithione; % activation relative to 30 μM ML-213
T1 construct: expressed in transfected cells
Method in brief: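 CHO cells stably expressing human Kv7.2 were recorded by automated patch clamp, holding at −60 mV with steps to −30, 40 and −90 mV; current was read at the −90 mV step. Compounds were added after 5.6 μM zinc pyrithione pre-activation. % activation was normalised between 30 μM ML-213 (max) and TEA+XE-991 (leak), with EC50 from a logistic fit.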

[2] = tested on: pain models; details: Korsgaard et al., 2005; Xu et al., 2010; Wu et al., 2017; cited from earlier work
[3] = tested on: preclinical models of tinnitus; details: Li, Choi and Tzounopoulos, 2013; cited from earlier work
[4] = tested on: patients; details: MDD patients; Tan et al., 2018; cited from earlier work
[5] = tested on: spreading depression; details: Aiba and Noebels, 2021; cited from earlier work
[6] = tested on: Dup15q patient-derived induced pluripotent cells; details: Fink et al., 2018; cited from earlier work
[7] = tested on: peripheral neuropathy; details: preclinical; Nodera et al., 2011; cited from earlier work
[8] = tested on: ALS patients; details: clinical trials in ALS; Wainger et al., 2021; cited from earlier work
[9] = tested on: Patient-derived motor neurons; details: ALS patient-derived motor neurons; Wainger et al., 2014; cited from earlier work

T1 sequence (O43526 whole entry): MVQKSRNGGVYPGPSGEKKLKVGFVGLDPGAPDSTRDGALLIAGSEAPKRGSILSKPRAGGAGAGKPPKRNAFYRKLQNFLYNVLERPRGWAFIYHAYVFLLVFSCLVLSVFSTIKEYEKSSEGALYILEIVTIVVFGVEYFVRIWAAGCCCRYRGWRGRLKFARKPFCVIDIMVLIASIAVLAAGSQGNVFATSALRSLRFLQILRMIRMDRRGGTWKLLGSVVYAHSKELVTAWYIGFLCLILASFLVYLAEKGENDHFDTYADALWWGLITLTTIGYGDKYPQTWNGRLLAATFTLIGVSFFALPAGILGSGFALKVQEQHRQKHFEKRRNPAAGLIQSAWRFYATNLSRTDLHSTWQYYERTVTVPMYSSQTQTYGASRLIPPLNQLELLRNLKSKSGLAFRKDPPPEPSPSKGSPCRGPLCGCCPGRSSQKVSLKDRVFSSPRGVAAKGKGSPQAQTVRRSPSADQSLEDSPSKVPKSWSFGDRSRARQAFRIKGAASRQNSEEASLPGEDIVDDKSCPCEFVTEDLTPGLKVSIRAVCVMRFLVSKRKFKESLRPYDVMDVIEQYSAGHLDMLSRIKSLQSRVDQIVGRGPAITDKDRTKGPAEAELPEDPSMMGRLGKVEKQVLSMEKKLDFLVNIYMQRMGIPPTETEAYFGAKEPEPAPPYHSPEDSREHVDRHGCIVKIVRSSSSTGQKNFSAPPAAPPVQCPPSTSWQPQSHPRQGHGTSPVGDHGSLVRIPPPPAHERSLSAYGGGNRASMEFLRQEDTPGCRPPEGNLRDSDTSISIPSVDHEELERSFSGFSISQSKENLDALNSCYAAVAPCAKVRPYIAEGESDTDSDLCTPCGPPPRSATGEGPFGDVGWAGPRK

With `Cc1ccc(C2CC2C(=O)NC[C@@]2(c3cccc(C#N)c3)CCO2)o1` (stereo partly drawn) [Example 133, N-[[(2S)-2-(3-cyanophenyl)oxetan-2-yl]methyl]-2-(5-methyl-2-furyl)cyclopropanecarboxamide] the EC50 [1] was 500 nM.
Work on `N#Cc1cccc([C@]2(CNC(=O)C3CC3n3cccc3)CCO2)c1` (stereo partly drawn) [Example 135, N-[[(2S)-2-(3-cyanophenyl)oxetan-2-yl]methyl]-2-pyrrol-1-yl-cyclopropanecarboxamide] yielded an EC50 [1] of 1140 nM.
`N#Cc1cccc([C@]2(CNC(=O)C3CC3C3CCC(F)(F)CC3)CCO2)c1` (stereo partly drawn) [Example 136, N-[[(2S)-2-(3-cyanophenyl)oxetan-2-yl]methyl]-2-(4,4-difluorocyclohexyl)cyclopropanecarboxamide] showed an EC50 [1] of 400 nM.
For `CCOC(=O)Nc1ccc(NCc2ccc(F)cc2)cc1N` [Retigabine], the “efficacy in preclinical pain models” value [2] is listed as “some efficacy in preclinical pain models”, the “prevention of the development of tinnitus” value [3] is listed as “prevents the development of tinnitus in preclinical models” and the antidepressant efficacy [4] is listed as “showed antidepressant efficacy in patients”. The “reduction in depressive symptoms” value [4] was “significant reduction in depressive symptoms”, the “efficacy in controlling spreading depression” value [5] was “shows efficacy in controlling spreading depression” and the effect on phenotype [6] was “partially corrects their phenotype”. The “protection against peripheral neuropathy” value [7] was “protects against peripheral neuropathy”, the “efficacy on functional biomarkers of ALS” value [8] was “showed efficacy on functional biomarkers of ALS” and the “rescue of membrane hyperexcitability phenotype” value [9] was “rescues the phenotype”.
